Measured values from patent US20100298377A1, “NOVEL SUBSTITUTED INDAZOLES, THE PREPARATION THEREOF AND USE OF SAME IN THERAPEUTICS” (SANOFI-AVENTIS, priority 2007, published 2010).

Assays:
[1] = test system: C-433 cells (human Ewing sarcoma cells); assay: Proliferation of C-433 cells, intracellular ATP, CellTiter-Glo test; assay type: cell-based; details: Homo sapiens, 96 hours
Excerpt: (§1) b. Study of the Proliferation of Human Tumoral MIA PaCa-2, C-433, LnCaP and MCF7 Cells via Assay of the Intracellular ATP Using the Celltiter-Glo™ Test
(§2) The kit CellTiter-Glo™ for measuring cell viability via luminescence ([…]) is a homogeneous method for determining the number of viable cells in culture, based on quantification of the ATP present in the cells, and which indicates the presence of metabolically active cells.
(§3) The cell lines used in this test were the following: MIA PaCa-2 cells (human pancreatic carcinoma cells, ATCC, CRL-1420), C-433 cells (human Ewing sarcoma cells, DSMZ, ACC 268), LNCaP clone FGC cells (human prostate carcinoma cells, ATCC, CRL-1740), MCF7 cells (human breast carcinoma cells, ECACC, #86012803). The cells MIAPaCa-2 and LNCaP were cultured in D-MEM culture medium (Invitrogen Gibco, #419656-039) containing 10% foetal calf serum (FCS, Invitrogen Gibco, #10500-064) and 2 mM L-Glutamine (Invitrogen Gibco, #25030-024); the C-433 cells were cultured in MCCoy's 5A culture medium (Invitrogen Gibco, #26600-023)/RPMI 1640 (Invitrogen Gibco, #31870-025) (50/50) containing 10% FCS and 2 mM L-glutamine; the MCF7 cells were cultured in EMEM culture medium (EMEM, Biowhittaker, Lonza, #BE12-662F) containing 10% FCS and 2 mM L-Glutamine.
(§4) Evaluation of the Cell Viability via Luminescence Measurement: Celltiter-Glo™ Test
(§5) On day 1, the cells were inoculated at 1000 (C-433), 2500 (MCF7) and 10000 (LNCaP and MIA PaCa-2) cells per well in black-bottomed 96-well microplates (NUNC fluoronunc, Fisherbioblock 2311K) in 135 μl of whole culture medium and incubated at 37° C., 5% CO2, for 3 to 6 hours. The cells were then incubated with increasing concentrations of molecules diluted in dimethyl sulfoxide (DMSO, Sigma D2650). The molecules were added in a volume of 15 μl of a 10-fold concentrated solution in a final volume of 150 μl, the final percentage of DMSO being 0.1%. The cells were incubated at 37° C., 5% CO2, for 96 hours. After 4 days of treatment with the molecules, the CellTiter-Glo™ was performed by following the manufacturer's instructions (Kit Celltiter-Glo Luminescent, PROMEGA #G7571). Briefly, the cell plates were equilibrated for about 30 minutes at RT and 100 μl per well of Celltiter-Glo reagent were added. The cells were incubated for 1 hour at RT for lysis of the cells and stabilization of the signal. The intracellular ATP was quantified by measuring the luminescence in rlu units (relative luminescence units), 96 hours after initiation of the treatment, using a luminescence counter (Wallac). The tests were performed in six replicates.
(§6) i) the mean±s.e.m. of each series of well replicates was calculated;
(§7) ii) the maximum response is given by positive control wells containing untreated cells; this control was performed in 12 replicates;
(§8) iii) the minimum response is given by cell-free and untreated negative control wells; this control was performed in 6 replicates;
(§9) iv) using these maximum (100%) and minimum (0%) response values, respectively, the data were normalized to give a percentage relative to the maximum response;
(§10) The IC50 values were calculated by […] with the XLfit software (IDBS, UK) using formula 205.

[2] = test system: LNCaP clone FGC cells (human prostate carcinoma cells); assay: Proliferation of LNCaP cells, intracellular ATP, CellTiter-Glo test; assay type: cell-based; details: Homo sapiens, LNCaP-Clone-FGC, 96 hours
Excerpt: as §1, §2, §3, §4, §5, §6, §7, §8, §9, §10

[3] = test system: MEF-IGF1 murine fibroblast cells; assay: IGF1-dependent proliferation of MEF-IGF1 cells via incorporation of [14C]-thymidine; assay type: cell-based; details: Mus musculus, Fibroblast; [14C]-thymidine incorporation, IGF1 stimulated, 72 hours; read-out: IC50 MEF-IGF
Excerpt: a. Study of the IGF1-Dependent Proliferation of MEF-IGF1 Murine Fibroblast Cells Measured via Incorporation of [14C]-Thymidine
This test is based on the incorporation of [^14C]-thymidine into the DNA of the cells for the S phase of the cell cycle during cell division. The cell line used in this test is the MEF/3T3 Tet-Off Clone 18 line obtained by stable transfection of the human receptor IGF1R in murine MEF/3T3 Tet-Off fibroblasts. To measure the IGF1-dependent cell proliferation, the cells were deprived of serum and cultured for 3 days in the serum-free culture medium in the presence of the growth factor IGF1 which stimulates the proliferation of MEF-IGF1 cells.
Test of Incorporation of [^14C]-Thymidine into MEF-IGF1 Cells
On day 1, the cells were inoculated with 7500 cells per well in Cytostar 96-well microplates (Amersham (GE) RPNQ0162) in 200 μl of EMEM medium (EMEM, Biowhittaker, #BE12-662F) containing 10% foetal calf serum (FCS, TET-BD Biosciences Tet System Approved FBS US-Sourced, #8630-1) and 1% PSG (Penicillin-Streptomycin-Glutamine (PSG), Gibco #10378-016), and incubated at 37° C., 5% CO2, for 24 hours. On day 2, the cells were washed in the FCS-free EMEM culture medium containing 1% PSG, and incubated in 170 μl of this serum-free culture medium at 37° C., 5% CO2, for 24 hours. On day 3, the cells were incubated with 10 μl of IGF1 (2 μg/ml of final concentration; recombinant human IGF-1, R & D Systems, #291-G1), 10 μl (0.1 μCi) of [^14C]-Thymidine (NEN NEC-568) plus 10 μl of increasing concentrations of the test molecules, diluted in dimethyl sulfoxide (DMSO, Sigma D2650). The molecules were added in a volume of 10 μl of a 20-fold concentrated solution in a final volume of 200 μl, the final percentage of DMSO being 0.1%. The treated cells were incubated at 37° C., 5% CO2, for 72 hours. The incorporation of [^14C]-Thymidine was quantified in cpm units (counts per minute) by counting the radioactivity 72 hours after the start of the treatment, using a Micro-Beta radioactivity counter (Perkin-Elmer). The tests were performed in duplicate.
as §6
ii) the background noise is calculated by preparing cell-free, IGF1-free and untreated control wells; this control was performed in 4 replicates. The background noise was removed at each measurement;
iii) the maximum response is given by positive control wells containing cells in the presence of IGF1 but untreated; this control was performed in 4 replicates;
iv) the minimum response is given by negative control wells containing IGF1-free and untreated cells; this control was performed in 4 replicates;
as §10

[4] = test system: MCF7 cells (human breast carcinoma cells); assay: Proliferation of MCF7 cells, intracellular ATP, CellTiter-Glo test; assay type: cell-based; details: Homo sapiens, MCF7, 96 hours
Excerpt: as §1, §2, §3, §4, §5, §6, §7, §8, §9, §10

| SMILES | IC50 [1] | IC50 [2] | IC50 [4] | melting point | IC50 [3] |
| --- | --- | --- | --- | --- | --- |
| O=C(Nc1ccc2[nH]ncc2c1)NC(c1cc(F)cc(Cl)c1)C1CCCCN1 (stereo not shown) [Ex 5, 1-[(3-Chloro-5-fluorophenyl)(piperid-2-yl)methyl]-3-(1H-indazol-5-yl)urea] | – | – | 1420 nM | 185 °C | < 100 nM |
| CN1CCCCC1C(NC(=O)Nc1ccc2[nH]ncc2c1)c1cc(F)cc(Cl)c1 (stereo not shown) [Ex 11, 1-[(3-Chloro-5-fluorophenyl)(1-methylpiperid-2-yl)methyl]-3-(1H-indazol-5-yl)urea] | – | – | – | – | 2920 nM |
| CN1CCCCC1C(NC(=O)Nc1ccc2[nH]nc(-c3ccncc3)c2c1)c1ccccc1 [Ex 13, 1-[(1-Methylpiperid-2-yl)(phenyl)methyl]-3-(3-pyrid-4-yl-1H-indazol-5-yl)urea((S,2S),(R,2R))] | – | – | – | – | 5120 nM |
| Cc1n[nH]c2ccc(NC(=O)NC(c3ccccc3)C3CCCCN3C)cc12 [Ex 18, 3-Methyl-5-({[(1-methylpiperid-2-yl)(phenyl)methyl]carbamoyl}amino)-1H-indazole ((S,2S),(R,2R))] | – | 1050 nM | 5800 nM | – | 290 nM |
| CN1CCCCC1C(NC(=O)Nc1ccc2[nH]nc(C#Cc3ccc(F)cc3)c2c1)c1ccccc1 [Ex 24, 1-{3-[(4-Fluorophenyl)ethynyl]-1H-indazol-5-yl}-3-[(1-methylpiperid-2-yl)(phenyl)methyl]urea((S,2S),(R,2R))] | – | – | – | – | 860 nM |
| S=C(Nc1ccc2[nH]ncc2c1)N[C@@H](c1ccc(Cl)c(Cl)c1)[C@@H]1CCCCN1 [Ex 31, 1-{(S)-(3,4-Dichlorophenyl)[(2S)-piperid-2-yl]methyl}-3-(1H-indazol-5-yl)thiourea] | – | 2940 nM | 4450 nM | – | 1270 nM |
| O=C(Nc1ccc2[nH]ncc2c1)OC(c1cc(Cl)cc(Cl)c1)C1CCCCN1 [Ex 34, (3,5-Dichlorophenyl)[piperid-2-yl]methyl 1H-indazol-5-ylcarbamate((S,2S),(R,2R))] | – | – | – | – | 600 nM |
| CN1CCCCC1C(OC(=O)Nc1ccc2[nH]ncc2c1)c1cc(F)cc(Cl)c1 (stereo not shown) [Ex 36, (3-Chloro-5-fluorophenyl)(1-methylpiperid-2-yl)methyl 1H-indazol-5-ylcarbamate] | – | 2230 nM | – | – | 770 nM |
| O=C(Nc1ccc2[nH]ncc2c1)O[C@H](c1ccc(Cl)c(Cl)c1)[C@H]1CCCCN1 [Ex 37, (R)-(3,4-Dichlorophenyl)[(2R)-piperid-2-yl]methyl 1H-indazol-5-ylcarbamate] | – | 2370 nM | – | – | 278 nM |
| O=C(Nc1ccc2[nH]ncc2c1)O[C@@H](c1ccc(Cl)c(Cl)c1)[C@@H]1CCCCN1 [Ex 38b, (S)-(3,4-Dichlorophenyl)[(2S)-piperid-2-yl]methyl 1H-indazol-5-ylcarbamate] | 1790 nM | 1710 nM | 2400 nM | – | 963 nM |

Now from value to molecule, other results behind:

| IC50 [1] | IC50 [2] | IC50 [4] | melting point | SMILES | IC50 [3] |
| --- | --- | --- | --- | --- | --- |
| 630 nM | 280 nM | 1100 nM | – | O=C(Nc1ccc2[nH]ncc2c1)N[C@@H](c1cc(F)cc(Cl)c1)[C@@H]1CCCCN1 [Ex 3, 1-{(S)-(3-Chloro-5-fluorophenyl)[(2S)-piperid-2-yl]methyl}-3-(1H-indazol-5-yl)urea] | 790 nM |
| 680 nM | 1200 nM | 2700 nM | 216 °C | O=C(Nc1ccc2[nH]ncc2c1)N[C@@H](c1ccc(Cl)c(Cl)c1)[C@@H]1CCCCN1 [Ex 4, 1-{(S)-(3,4-Dichlorophenyl)[(2S)-piperid-2-yl]methyl}-3-(1H-indazol-5-yl)urea] | 500 nM |
| – | 861 nM | – | – | CN1CCCCC1C(NC(=O)Nc1cc(F)c2[nH]ncc2c1)c1ccccc1 [Ex 21, 1-(7-Fluoro-1H-indazol-5-yl)-3-[(1-methylpiperid-2-yl)(phenyl)methyl]urea((S,2S),(R,2R))] | 2820 nM |
| 288 nM | 611 nM | 1290 nM | – | CN1CCCCC1C(NC(=O)Nc1ccc2[nH]nc(C#Cc3cccnc3)c2c1)c1ccccc1 [Ex 25, 1-[(1-Methylpiperid-2-yl)(phenyl)methyl]-3-[3-(pyrid-3-ylethynyl)-1H-indazol-5-yl]urea((S,2S),(R,2R))] | 366 nM |
| – | 319 nM | 1050 nM | – | O=C(Nc1ccc2[nH]ncc2c1)O[C@@H](c1cc(F)cc(Cl)c1)[C@@H]1CCCCN1 [Ex 35, (S)-(3-Chloro-5-fluorophenyl)[(2S)-piperid-2-yl]methyl 1H-indazol-5-ylcarbamate] | 560 nM |
| 500 nM | 600 nM | 1300 nM | – | O=C(Nc1ccc2[nH]ncc2c1)O[C@@H](c1cccc(Br)c1)[C@@H]1CCCCN1 [Ex 46] | 546 nM |
